Test results: publication PMC7261929, “A New Family of Jumonji C Domain-Containing KDM Inhibitors Inspired by Natural Product Purpurogallin” (Frontiers in Chemistry, 2020)
One block for each compound: values may come before it.

What was measured:
Assay type in all cases: biochemical
KDM4C = target: T1, KDM4C (Homo sapiens, UniProt Q9H3R0); test: fluorescence demethylase enzymatic assay, dose curve
T1 construct: KDM4C-GST recombinant enzyme
T1 sequence (Q9H3R0 1-1056): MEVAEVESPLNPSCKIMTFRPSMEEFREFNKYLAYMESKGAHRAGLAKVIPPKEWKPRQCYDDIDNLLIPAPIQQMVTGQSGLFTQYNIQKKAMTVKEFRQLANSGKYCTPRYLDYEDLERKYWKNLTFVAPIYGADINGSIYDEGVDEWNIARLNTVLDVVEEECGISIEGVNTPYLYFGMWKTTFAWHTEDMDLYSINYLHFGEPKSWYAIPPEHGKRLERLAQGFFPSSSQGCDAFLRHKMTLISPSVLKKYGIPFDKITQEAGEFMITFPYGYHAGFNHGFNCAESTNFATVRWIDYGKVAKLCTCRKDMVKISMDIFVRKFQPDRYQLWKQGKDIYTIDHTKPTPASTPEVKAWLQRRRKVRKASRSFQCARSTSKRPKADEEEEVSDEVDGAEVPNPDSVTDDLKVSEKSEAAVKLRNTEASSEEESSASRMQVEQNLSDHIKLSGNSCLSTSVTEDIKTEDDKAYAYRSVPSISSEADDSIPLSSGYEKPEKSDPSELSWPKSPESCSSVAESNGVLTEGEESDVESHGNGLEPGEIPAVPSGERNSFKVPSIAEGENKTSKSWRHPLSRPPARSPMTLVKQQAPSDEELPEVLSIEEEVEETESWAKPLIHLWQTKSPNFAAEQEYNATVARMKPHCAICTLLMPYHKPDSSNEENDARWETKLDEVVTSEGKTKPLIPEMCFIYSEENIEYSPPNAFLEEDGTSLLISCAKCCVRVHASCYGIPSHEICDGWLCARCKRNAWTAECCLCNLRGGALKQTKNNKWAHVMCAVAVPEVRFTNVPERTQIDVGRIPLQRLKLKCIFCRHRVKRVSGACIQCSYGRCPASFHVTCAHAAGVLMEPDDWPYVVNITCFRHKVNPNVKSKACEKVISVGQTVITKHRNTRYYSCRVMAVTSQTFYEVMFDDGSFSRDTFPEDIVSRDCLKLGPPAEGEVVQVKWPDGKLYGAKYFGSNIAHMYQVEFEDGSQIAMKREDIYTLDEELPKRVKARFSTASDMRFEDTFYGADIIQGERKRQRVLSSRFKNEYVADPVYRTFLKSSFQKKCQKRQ

KDM4A [1] = target: T2, KDM4A (Homo sapiens, UniProt O75164); test: AlphaLISA JMJD2A homogeneous demethylase assay, […] concentrations (fluorescence assay gave IC50 […])
T2 sequence (O75164 2-1064): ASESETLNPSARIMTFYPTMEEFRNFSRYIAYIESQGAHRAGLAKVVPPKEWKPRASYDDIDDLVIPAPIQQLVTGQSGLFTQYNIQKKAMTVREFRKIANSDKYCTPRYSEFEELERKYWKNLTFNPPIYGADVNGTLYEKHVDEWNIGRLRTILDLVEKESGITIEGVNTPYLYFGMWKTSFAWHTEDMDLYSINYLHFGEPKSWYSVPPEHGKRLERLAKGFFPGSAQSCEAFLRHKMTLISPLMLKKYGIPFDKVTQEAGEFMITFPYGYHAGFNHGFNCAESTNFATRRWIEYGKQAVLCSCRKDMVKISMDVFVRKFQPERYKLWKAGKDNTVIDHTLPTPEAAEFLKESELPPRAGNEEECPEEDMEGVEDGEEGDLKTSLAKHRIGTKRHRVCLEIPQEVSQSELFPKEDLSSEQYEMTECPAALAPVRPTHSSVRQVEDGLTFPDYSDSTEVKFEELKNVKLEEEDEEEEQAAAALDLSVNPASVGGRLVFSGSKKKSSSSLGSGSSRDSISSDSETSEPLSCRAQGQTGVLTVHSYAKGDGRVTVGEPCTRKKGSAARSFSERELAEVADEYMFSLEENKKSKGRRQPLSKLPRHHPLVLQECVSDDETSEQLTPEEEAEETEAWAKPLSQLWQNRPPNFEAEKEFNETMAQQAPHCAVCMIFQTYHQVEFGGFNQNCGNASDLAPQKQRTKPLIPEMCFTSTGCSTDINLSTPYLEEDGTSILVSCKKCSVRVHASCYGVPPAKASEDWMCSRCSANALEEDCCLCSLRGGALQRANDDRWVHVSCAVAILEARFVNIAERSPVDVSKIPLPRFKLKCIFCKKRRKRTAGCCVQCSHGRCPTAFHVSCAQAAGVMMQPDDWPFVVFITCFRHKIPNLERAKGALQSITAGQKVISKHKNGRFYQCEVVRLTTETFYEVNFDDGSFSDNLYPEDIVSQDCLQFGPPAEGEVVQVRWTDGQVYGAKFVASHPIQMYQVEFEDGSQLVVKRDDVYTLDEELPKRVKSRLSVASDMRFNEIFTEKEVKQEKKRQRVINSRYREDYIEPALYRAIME

KDM4B = target: T3, KDM4B (Homo sapiens, UniProt O94953); test: fluorescence demethylase enzymatic assay, dose curve
T3 construct: KDM4B-GST recombinant enzyme
T3 sequence (O94953 1-1096): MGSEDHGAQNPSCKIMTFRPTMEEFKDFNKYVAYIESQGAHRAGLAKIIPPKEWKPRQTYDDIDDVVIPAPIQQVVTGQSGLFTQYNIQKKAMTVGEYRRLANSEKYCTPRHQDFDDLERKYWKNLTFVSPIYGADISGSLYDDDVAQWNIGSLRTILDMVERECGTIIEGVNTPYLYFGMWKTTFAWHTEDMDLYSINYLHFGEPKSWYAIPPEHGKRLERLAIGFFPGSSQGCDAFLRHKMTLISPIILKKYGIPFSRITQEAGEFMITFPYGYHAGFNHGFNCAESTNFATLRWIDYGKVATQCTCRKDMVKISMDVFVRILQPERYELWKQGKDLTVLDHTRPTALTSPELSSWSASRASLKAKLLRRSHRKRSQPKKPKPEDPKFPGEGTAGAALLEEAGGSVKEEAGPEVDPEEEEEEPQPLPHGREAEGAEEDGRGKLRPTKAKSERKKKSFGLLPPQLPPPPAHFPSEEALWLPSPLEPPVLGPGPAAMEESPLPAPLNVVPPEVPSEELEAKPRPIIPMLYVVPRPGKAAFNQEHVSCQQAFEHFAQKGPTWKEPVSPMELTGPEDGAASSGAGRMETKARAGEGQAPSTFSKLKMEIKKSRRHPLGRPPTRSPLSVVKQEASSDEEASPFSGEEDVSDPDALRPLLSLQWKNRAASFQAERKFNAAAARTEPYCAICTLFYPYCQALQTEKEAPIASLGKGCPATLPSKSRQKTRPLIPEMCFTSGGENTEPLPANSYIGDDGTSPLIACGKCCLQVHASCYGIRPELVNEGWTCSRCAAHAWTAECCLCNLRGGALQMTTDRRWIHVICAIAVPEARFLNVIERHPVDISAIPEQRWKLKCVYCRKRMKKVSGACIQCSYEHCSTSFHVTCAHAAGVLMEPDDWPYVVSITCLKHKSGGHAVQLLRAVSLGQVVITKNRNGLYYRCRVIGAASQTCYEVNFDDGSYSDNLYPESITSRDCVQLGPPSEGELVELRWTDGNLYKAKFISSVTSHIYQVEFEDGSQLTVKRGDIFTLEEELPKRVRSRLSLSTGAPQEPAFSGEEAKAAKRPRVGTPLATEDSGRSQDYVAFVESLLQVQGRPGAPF

KDM4D = target: T4, KDM4D (Homo sapiens, UniProt Q6B0I6); test: as above
T4 construct: KDM4D-GST recombinant enzyme
T4 sequence (Q6B0I6 1-523): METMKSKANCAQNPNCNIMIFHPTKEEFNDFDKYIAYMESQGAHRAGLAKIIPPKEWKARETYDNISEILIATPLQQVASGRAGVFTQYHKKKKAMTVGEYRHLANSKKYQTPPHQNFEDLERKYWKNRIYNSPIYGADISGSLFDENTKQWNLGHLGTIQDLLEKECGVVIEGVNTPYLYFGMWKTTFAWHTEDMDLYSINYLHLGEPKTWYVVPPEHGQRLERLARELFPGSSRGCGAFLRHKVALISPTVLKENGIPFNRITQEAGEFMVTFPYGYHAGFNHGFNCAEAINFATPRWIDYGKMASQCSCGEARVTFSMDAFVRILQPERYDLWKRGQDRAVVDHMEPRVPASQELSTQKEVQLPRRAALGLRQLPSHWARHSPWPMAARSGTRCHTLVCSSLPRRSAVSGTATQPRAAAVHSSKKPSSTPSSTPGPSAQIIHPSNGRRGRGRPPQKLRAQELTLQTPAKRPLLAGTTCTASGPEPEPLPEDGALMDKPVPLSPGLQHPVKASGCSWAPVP

KDM4A [2] = target: T2, KDM4A; test: KDM4A enzymatic screening assay and fluorescence assay at […]
KDM4A [3] = target: T2, KDM4A; test: fluorescence demethylase enzymatic assay, single dose […]

IC50 (KDM4C): 38.9 µM
IC50 (KDM4A [1]): 10.1 µM
IC50 (KDM4B): 35.9 µM
IC50 (KDM4D): 28.5 µM
SMILES: O=C(O)c1cc(O)c(=O)c2c(O)c(O)cc(-c3ccccc3)c2c1 [9bf, 3,4,6-trihydroxy-5-oxo-1-phenyl-5H-benzo[7]annulene-8-carboxylic acid]

KDM4A enzymatic screening assay and fluorescence assay at 50 μM (KDM4A [2]): Purpurogallin 9aa
SMILES: O=c1c(O)cccc2cc(O)c(O)c(O)c12 [9aa, 2,3,4,6-tetrahydroxy-5H-benzo[7]annulen-5-one]

inhibition at 50 µM (KDM4A [3]): 80%
SMILES: O=C(O)c1cc(O)c(=O)c2c(O)c(O)cc(Br)c2c1 [9bc, 1-bromo-3,4,6-trihydroxy-5-oxo-5H-benzo[7]annulene-8-carboxylic acid]

inhibition at 50 µM (KDM4A [3]): 50%
SMILES: O=c1c(O)cccc2c(Br)cc(O)c(O)c12 [9ac, 1-bromo-3,4,6-trihydroxy-5H-benzo[7]annulen-5-one]
